ChEMBL document CHEMBL5113482, “Discovery of fused benzimidazole-imidazole autophagic flux inhibitors for treatment of triple-negative breast cancer” (Eur J Med Chem, 2022)
Activity calls are given as the source filed them. The calls are words filed in the database; no cut-off is given here.

Legend:
MDA-MB-468 [1] = experiment: Inhibition of autophagy in human MDA-MB-468 cells assessed as increase in p62 expression at 5 to 20 uM measured after 48 hrs by Western blot analysis; type: functional, cell-based; conditions: dose 5-20 µM, DDE = dose-dependent effect
MDA-MB-231 [2] = experiment: Cell cycle arrest in human MDA-MB-231 cells assessed as reduction in cyclin A expression measured after 48 hrs by Western blot analysis; type: functional, cell-based; conditions: dose 5-20 µM, DDE = dose-dependent effect
MDA-MB-468 [3] = experiment: Inhibition of autophagic flux in human MDA-MB-468 cells assessed as increase in nuclear p62 expression measured after 48 hrs by Western blot analysis; type: functional, cell-based; conditions: dose 5-20 µM, DDE = dose-dependent effect
MDA-MB-231 [4] = experiment: Antitumor activity against human MDA-MB-231 cells xenografted in NOD/SCID mouse assessed as reduction in Ki67 expression at 5 to 15 mg/kg, ip administered at 3 days interval for 24 days and measured on day 25 by immunohistochemical analysis; type: functional, organism-based; conditions: dose 5-15 mg/kg, time 25.0 day
MDA-MB-468 [5] = experiment: Cell cycle arrest in human MDA-MB-468 cells assessed as reduction in CDK1 expression measured after 48 hrs by Western blot analysis; type: functional, cell-based; conditions: dose 5-20 µM, DDE = dose-dependent effect
MDA-MB-468 [6] = experiment: Inhibition of autophagic flux in human MDA-MB-468 cells assessed as increase in cytoplasmic p62 expression measured after 48 hrs by Western blot analysis; type: functional, cell-based; conditions: dose 5-20 µM, DDE = dose-dependent effect
MDA-MB-468 [7] = experiment: Induction of DNA damage in human MDA-MB-468 cells assessed as increase in gamma-H2AX accumulation measured after 48 hrs by immunofluorescence analysis; type: functional, cell-based
MDA-MB-468 [8] = experiment: Induction of apoptosis in human MDA-MB-468 cells assessed as increase in Bax expression measured after 48 hrs by Western blot analysis; type: functional, cell-based; conditions: dose 5-20 µM, DDE = dose-dependent effect
MDA-MB-231 [9] = experiment: Inhibition of autophagy in human MDA-MB-231 cells assessed as increase in p62 expression at 5 to 20 uM measured after 48 hrs by Western blot analysis; type: functional, cell-based; conditions: dose 5-20 µM, DDE = dose-dependent effect
HeLa = experiment: Inhibition of autophagic flux in human HeLa cells expressing mRFP-EGFP-LC3B assessed as blockage of autophagosome-lysosome fusion by measuring accumulation of yellow fluorescent vesicles; type: functional, cell-based
MDA-MB-468 [10] = experiment: Cell cycle arrest in human MDA-MB-468 cells assessed as increase in accumulation at S-phase at 5 to 20 uM measured after 48 hrs by propidium iodide staining based flow cytometry; type: functional; conditions: dose 5-20 µM
[11] = molecular target: Serine-protein kinase ATM (Homo sapiens) (UniProt Q13315); experiment: Activation of ATM phosphorylation in human MDA-MB-468 cells at 5 to 20 uM measured after 6 to 48 hrs by Western blot analysis; type: cell-based; conditions: filed as activator, dose 5-20 µM, time 6-48 hrs
Chain of Serine-protein kinase ATM (Homo sapiens) (Q13315 whole entry): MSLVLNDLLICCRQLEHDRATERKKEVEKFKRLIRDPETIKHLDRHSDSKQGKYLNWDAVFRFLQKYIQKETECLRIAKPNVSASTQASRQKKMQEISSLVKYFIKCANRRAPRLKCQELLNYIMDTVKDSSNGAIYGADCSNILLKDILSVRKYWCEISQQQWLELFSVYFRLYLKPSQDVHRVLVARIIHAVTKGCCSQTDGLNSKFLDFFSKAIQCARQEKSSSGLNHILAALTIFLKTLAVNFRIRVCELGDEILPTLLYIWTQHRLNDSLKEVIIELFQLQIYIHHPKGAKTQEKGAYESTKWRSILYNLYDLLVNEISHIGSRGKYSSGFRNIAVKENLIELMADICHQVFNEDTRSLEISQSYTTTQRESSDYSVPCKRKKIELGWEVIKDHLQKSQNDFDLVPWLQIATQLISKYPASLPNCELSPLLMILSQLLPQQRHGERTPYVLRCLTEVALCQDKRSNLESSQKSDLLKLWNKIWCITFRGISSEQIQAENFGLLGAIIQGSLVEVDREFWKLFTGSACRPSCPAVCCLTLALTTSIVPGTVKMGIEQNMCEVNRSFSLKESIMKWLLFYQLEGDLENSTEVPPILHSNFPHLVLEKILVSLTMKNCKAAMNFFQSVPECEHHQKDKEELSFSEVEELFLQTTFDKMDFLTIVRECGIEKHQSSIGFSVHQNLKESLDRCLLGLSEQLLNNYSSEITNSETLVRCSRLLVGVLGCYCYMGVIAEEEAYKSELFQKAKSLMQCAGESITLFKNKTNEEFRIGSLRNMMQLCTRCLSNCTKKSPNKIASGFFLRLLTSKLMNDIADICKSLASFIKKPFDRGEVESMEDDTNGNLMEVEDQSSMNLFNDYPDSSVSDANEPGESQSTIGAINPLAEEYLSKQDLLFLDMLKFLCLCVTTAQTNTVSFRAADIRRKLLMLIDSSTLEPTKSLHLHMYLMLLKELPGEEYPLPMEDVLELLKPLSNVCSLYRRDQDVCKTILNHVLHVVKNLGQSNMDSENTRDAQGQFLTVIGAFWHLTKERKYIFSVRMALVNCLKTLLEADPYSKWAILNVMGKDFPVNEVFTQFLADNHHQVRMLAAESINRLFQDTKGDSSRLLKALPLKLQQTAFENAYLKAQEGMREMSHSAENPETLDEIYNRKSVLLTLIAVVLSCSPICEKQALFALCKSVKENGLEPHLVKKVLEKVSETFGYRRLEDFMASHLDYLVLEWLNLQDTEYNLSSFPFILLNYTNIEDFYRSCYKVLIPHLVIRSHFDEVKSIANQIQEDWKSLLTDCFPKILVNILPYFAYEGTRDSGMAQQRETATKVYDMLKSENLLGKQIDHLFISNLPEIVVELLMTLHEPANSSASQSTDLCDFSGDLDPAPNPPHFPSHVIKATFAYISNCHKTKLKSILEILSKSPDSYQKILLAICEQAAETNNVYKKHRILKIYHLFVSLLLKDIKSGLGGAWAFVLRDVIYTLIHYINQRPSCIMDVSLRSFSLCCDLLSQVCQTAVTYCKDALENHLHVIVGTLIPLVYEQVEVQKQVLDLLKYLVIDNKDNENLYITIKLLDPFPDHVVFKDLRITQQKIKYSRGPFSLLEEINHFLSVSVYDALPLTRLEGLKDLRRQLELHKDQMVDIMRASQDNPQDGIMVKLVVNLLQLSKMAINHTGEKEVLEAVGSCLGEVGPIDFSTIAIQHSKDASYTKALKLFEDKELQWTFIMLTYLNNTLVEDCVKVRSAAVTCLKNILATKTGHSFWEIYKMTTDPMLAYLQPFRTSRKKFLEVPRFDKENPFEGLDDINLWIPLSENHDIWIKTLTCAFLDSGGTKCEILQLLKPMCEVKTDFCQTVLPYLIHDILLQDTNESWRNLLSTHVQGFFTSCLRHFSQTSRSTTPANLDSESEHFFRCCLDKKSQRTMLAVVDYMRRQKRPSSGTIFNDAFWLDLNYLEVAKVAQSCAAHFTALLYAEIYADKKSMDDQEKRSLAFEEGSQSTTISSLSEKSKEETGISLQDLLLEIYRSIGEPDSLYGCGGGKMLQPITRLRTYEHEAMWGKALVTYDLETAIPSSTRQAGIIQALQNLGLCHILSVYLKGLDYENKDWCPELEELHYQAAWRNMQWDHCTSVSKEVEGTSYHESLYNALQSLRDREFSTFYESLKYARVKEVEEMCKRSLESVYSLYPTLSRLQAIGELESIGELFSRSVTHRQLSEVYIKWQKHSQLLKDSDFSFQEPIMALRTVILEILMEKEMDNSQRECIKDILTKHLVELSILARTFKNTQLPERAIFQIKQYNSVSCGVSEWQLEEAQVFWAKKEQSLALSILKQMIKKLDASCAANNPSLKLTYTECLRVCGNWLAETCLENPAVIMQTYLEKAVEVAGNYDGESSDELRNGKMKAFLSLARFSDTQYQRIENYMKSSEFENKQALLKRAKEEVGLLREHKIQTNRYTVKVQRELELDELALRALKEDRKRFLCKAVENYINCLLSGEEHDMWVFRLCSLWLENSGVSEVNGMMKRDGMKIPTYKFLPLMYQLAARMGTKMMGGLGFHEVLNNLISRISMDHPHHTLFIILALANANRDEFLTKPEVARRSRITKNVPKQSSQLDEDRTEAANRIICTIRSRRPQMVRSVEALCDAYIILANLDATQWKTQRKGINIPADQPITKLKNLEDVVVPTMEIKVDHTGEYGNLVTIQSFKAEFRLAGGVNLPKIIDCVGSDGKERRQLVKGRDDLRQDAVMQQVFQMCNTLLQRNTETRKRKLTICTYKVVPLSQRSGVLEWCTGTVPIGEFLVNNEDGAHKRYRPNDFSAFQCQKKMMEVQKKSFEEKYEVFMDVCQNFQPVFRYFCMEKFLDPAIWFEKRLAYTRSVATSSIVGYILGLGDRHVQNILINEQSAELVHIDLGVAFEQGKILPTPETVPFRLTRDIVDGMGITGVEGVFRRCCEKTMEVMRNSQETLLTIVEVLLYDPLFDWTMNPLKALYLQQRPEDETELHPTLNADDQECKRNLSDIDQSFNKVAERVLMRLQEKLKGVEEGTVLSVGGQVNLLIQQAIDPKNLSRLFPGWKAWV

MDA-MB-468 [12] = experiment: Inhibition of autophagic flux in human MDA-MB-468 cells assessed as reduction in RNF8 expression at 5 to 20 uM measured after 6 to 48 hrs by Western blot analysis; type: functional, cell-based; conditions: dose 5-20 µM, time 6-48 hrs
SW-620 = experiment: Antiproliferative activity against human SW-620 cells assessed as cell growth inhibition measured after 48 hrs by MTT assay; type: functional, cell-based; conditions: SW-620, 48 h
MDA-MB-468 [13] = experiment: Cell cycle arrest in human MDA-MB-468 cells assessed as reduction in CDK2 expression measured after 48 hrs by Western blot analysis; type: functional, cell-based; conditions: dose 5-20 µM, DDE = dose-dependent effect
MDA-MB-468 [14] = experiment: Cell cycle arrest in human MDA-MB-468 cells assessed as increase in p21 expression measured after 48 hrs by Western blot analysis; type: functional, cell-based; conditions: dose 5-20 µM, DDE = dose-dependent effect
MDA-MB-231 [15] = experiment: Induction of apoptosis in human MDA-MB-231 cells assessed as increase in cleaved PARP expression measured after 48 hrs by Western blot analysis; type: functional, cell-based; conditions: dose 5-20 µM, DDE = dose-dependent effect
MDA-MB-231 [16] = experiment: Cell cycle arrest in human MDA-MB-231 cells assessed as reduction in CDK1 expression measured after 48 hrs by Western blot analysis; type: functional, cell-based; conditions: dose 5-20 µM, DDE = dose-dependent effect
Nibrin (Homo sapiens) = molecular target: T1, Nibrin (Homo sapiens) (UniProt O60934); experiment: Activation of NBS1 phosphorylation in human MDA-MB-231 cells at 5 to 20 uM measured after 6 to 48 hrs by Western blot analysis; type: cell-based; conditions: filed as activator, dose 5-20 µM, time 6-48 hrs
T1 sequence (whole entry): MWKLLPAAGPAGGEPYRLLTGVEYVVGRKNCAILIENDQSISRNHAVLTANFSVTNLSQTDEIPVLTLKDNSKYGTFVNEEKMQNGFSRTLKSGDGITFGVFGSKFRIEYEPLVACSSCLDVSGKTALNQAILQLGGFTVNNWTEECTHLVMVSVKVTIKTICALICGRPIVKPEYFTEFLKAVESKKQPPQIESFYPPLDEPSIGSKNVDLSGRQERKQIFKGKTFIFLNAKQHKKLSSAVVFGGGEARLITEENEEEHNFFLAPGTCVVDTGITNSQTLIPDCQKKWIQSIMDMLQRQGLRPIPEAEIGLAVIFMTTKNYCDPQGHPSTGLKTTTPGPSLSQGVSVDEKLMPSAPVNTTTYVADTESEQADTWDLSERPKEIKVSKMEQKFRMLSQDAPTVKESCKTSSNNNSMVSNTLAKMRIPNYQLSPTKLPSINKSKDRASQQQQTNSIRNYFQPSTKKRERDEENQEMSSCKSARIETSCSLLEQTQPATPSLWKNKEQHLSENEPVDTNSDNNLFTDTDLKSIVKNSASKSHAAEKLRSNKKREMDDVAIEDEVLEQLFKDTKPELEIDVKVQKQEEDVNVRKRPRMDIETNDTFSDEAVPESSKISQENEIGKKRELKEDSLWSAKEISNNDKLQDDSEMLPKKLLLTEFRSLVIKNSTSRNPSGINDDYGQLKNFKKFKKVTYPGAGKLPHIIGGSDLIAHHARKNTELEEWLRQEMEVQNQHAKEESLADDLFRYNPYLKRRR

MDA-MB-468 [17] = experiment: Antiproliferative activity against human MDA-MB-468 cells assessed as reduction in Ki67 expression measured after 48 hrs by immunofluorescence analysis; type: functional, cell-based
MDA-MB-231 [18] = experiment: Inhibition of autophagic flux in human MDA-MB-231 cells assessed as increase in nuclear p62 expression measured after 48 hrs by Western blot analysis; type: functional, cell-based; conditions: dose 5-20 µM, DDE = dose-dependent effect
MDA-MB-468 [19] = experiment: Inhibition of autophagy in human MDA-MB-468 cells assessed as increase in LC3B-II expression measured after 48 hrs by immunofluorescence analysis; type: functional, cell-based; conditions: dose 5-20 µM
MDA-MB-231 [20] = experiment: Inhibition of autophagic flux in human MDA-MB-231 cells assessed as increase in nuclear p62 expression measured after 48 hrs by immunofluorescence analysis; type: functional, cell-based; conditions: dose 5-20 µM, DDE = dose-dependent effect
MDA-MB-231 [21] = experiment: Induction of apoptosis in human MDA-MB-231 cells assessed as increase in cleaved caspase-3 expression measured after 48 hrs by Western blot analysis; type: functional, cell-based; conditions: dose 5-20 µM, DDE = dose-dependent effect
LN-229 = experiment: Antiproliferative activity against human LN-229 cells assessed as cell growth inhibition measured after 48 hrs by MTT assay; type: functional, cell-based; conditions: LN-229, 48 h
MDA-MB-231 [22] = experiment: Antiproliferative activity against human MDA-MB-231 cells assessed as reduction in Ki67 expression measured after 48 hrs by immunofluorescence analysis; type: functional, cell-based
MDA-MB-231 [23] = experiment: Antiproliferative activity against human MDA-MB-231 cells assessed as reduction in cell count by microscopy; type: functional, cell-based
MDA-MB-468 [24] = experiment: Cell cycle arrest in human MDA-MB-468 cells assessed as reduction in cyclin B expression measured after 48 hrs by Western blot analysis; type: functional, cell-based; conditions: dose 5-20 µM, DDE = dose-dependent effect
MDA-MB-231 [25] = experiment: Cell cycle arrest in human MDA-MB-231 cells assessed as reduction in cyclin B expression measured after 48 hrs by Western blot analysis; type: functional, cell-based; conditions: dose 5-20 µM, DDE = dose-dependent effect
MDA-MB-231 [26] = experiment: Induction of mitochondrial membrane potential loss in human MDA-MB-231 cells at 20 uM measured after 48 hrs by JC-1 staining based assay relative to control; type: functional

For `O=C(NC1CCCCC1)c1[nH]cnc1-c1nc2ccccc2[nH]1`, the inhibition (MDA-MB-468 [1]) was “Dde”, the Activity (MDA-MB-231 [2]) was “Dde” and the inhibition (MDA-MB-468 [3]) was “Dde”. The Activity (MDA-MB-231 [4]) was “Active”, the Activity (MDA-MB-468 [5]) was “Dde” and the inhibition (MDA-MB-468 [6]) was “Dde”. The Activity (MDA-MB-468 [7]) was “Active”, the Activity (MDA-MB-468 [8]) was “Dde” and the inhibition (MDA-MB-231 [9]) was “Dde”. For the same molecule, the inhibition (HeLa) was “Active”, the Activity (MDA-MB-468 [10]) was “Active” and the Activity [11] was “Active”. The inhibition (MDA-MB-468 [12]) was “Active”, the IC50 (SW-620) was 25.4 µM and the Activity (MDA-MB-468 [13]) was “Dde”. The Activity (MDA-MB-468 [14]) was “Dde”, the Activity (MDA-MB-231 [15]) was “Dde” and the Activity (MDA-MB-231 [16]) was “Dde”. For the same molecule, the Activity (Nibrin (Homo sapiens)) was “Active”, the Activity (MDA-MB-468 [17]) was “Active” and the inhibition (MDA-MB-231 [18]) was “Dde”. The inhibition (MDA-MB-468 [19]) was “Active”, the inhibition (MDA-MB-231 [20]) was “Dde” and the Activity (MDA-MB-231 [21]) was “Dde”. For the same molecule, the IC50 (LN-229) was 61.4 µM, the Activity (MDA-MB-231 [22]) was “Active” and the Activity (MDA-MB-231 [23]) was “Active”. For the same molecule, the Activity (MDA-MB-468 [24]) was “Dde”, the Activity (MDA-MB-231 [25]) was “Dde” and the Activity (MDA-MB-231 [26]) was 50%.
